Experimental data from US10189863B2, “5,6-dihydro-4H-benzo[b]thieno-[2,3-d]azepine derivatives” (PULMOCIDE LIMITED, priority 2014, dated 2019).

Test system: RSV A2
Assay: RSV infection in mice: virus titre in lung (plaque assay)
Assay type: in vivo, mice (male BALB/C)
Conditions: for Virus titre in lung, Geometric mean / Virus titre in lung, Median: mice, day 4
Method: Non-fasted mice (male BALB/C, 20-30 g) were infected intranasally with RSV A2 or virus diluent (DMEM, 2% FBS, 12.5% sucrose) under isoflurane (5% in O2) anaesthesia. The A2 strain of RSV (50 μL of 1.3×10^6 PFU/mL: final 0.65×10^5 PFU/mouse) was instilled into each nostril in a drop wise fashion alternating between the two until a volume of 50 μL was delivered. Following infection each animal was weighed on a daily basis to monitor changes. Test compounds were dissolved in 100% DMSO (at 20 mg/mL and/or 2 mg/mL), then diluted at 1:10 in isotonic saline to achieve 10% DMSO in all treatments. Formulations were then sonicated to produce a suspension. The suspension was administered intratracheally (20 μL) with a FMJ-250 PennCentury device or intranasally (40 μL) with a pipette on 1 day and 1 hr before infection (day 0), and then on days 1, 2 and 3 post infection. Four days after RSV challenge, the animals were euthanised (by intraperitoneal injection of a pentobarbitone overdose), the trachea cannulated and BALF extracted for total and differential cell counts. Following BALF collection, the right lung was removed from each animal and homogenised in ice-cold Dulbecco's modified Eagles medium (using 10 times the lung weight of DMEM containing 1% BSA and 25% sucrose) for 2×20 second bursts. The homogenate was then transferred into a sterile tube and spun at 4° C. (2000 rpm; for 5 min). The clarified homogenate was transferred to a chilled cryovial, snap frozen and stored at −80° C. The supernatants from lung homogenates were used for Plaque assay.
HEp2 cells were grown in 24-well plates (Corning) for 48 hr prior to infection in DMEM containing 10% FBS until they attained 100% confluency. Lung homogenate was thawed at RT and ten-fold serial dilutions were prepared in serum-free DMEM. The growth medium from HEp2 cells was aspirated and replaced with 300 μL of serially diluted lung homogenate and left to infect (4 hr; 37° C./5% CO2). The infectious media were aspirated and replaced with Plaque Assay Overlay (500 μL; 1% methylcellulose in MEM, 2% FBS, 1% Pen Strep, 0.5 μg/mL amphotericin B), and left for 7 days (37° C./5% CO2). Cells were fixed with ice-cold methanol for 10 min and blocked with 5% powdered milk (Marvel) in 0.05% PBS-tween (blocking buffer) for 1 hr at RT.
Anti-RSV F-protein antibody [2F7] (Abcam: ab43812) was diluted to a 1:100 concentration in blocking buffer and added to cells for 1 hr at RT with shaking. Cells were washed using PBS and then incubated with the secondary antibody (HRP conjugated goat anti-mouse secondary antibody (Dako P044701-2) diluted in 1:400 with blocking buffer) for 1 hr at RT with shaking. The secondary antibody solution was removed and cells were washed with PBS before the metal-enhanced development substrate DAB was prepared in ultra-pure water (according to manufacturer's instructions). Each well received 300 μL of development substrate (sigmaFAST D0426) until plaques were visible. Plaques were counted by eye and confirmed using light microscopy, allowing the calculation of plaque forming units per mL of lung homogenate supernatant.

[1] = intranasal, Drug Conc 0.2 mg/mL
[2] = intranasal, Drug Conc 2 mg/mL, LOQ 1.5
[3] = intratracheal, Drug Conc 0.2 mg/mL, LOQ 1.5

## Cc1cnc(N2CC3(CCOCC3)C2)c(C(=O)Nc2ccc(C(=O)N3CCc4cc(C(=O)Nc5c(C)cccc5F)sc4-c4ccccc43)cc2)c1 [Example 5, N-(2-Fluoro-6-methylphenyl)-6-(4-(5-methyl-2-(7-oxa-2-azaspiro[3.5]nonan-2-yl)nicotinamido)benzoyl)-5,6-dihydro-4H-benzo[b]thieno[2,3-d]azepine-2-carboxamide]
RSV A2 infected mice
  Effect on virus titre in the lungs (in words): completely inhibited virus titre
[1]
  Virus titre in lung, Geometric mean: 2.4 log PFU/lung
  Virus titre in lung, Median: 2.5 log PFU/lung
[2]
  Virus titre in lung, Geometric mean: <1.5^2 log PFU/lung
  Virus titre in lung, Median: <1.5^2 log PFU/lung
[3]
  Virus titre in lung, Geometric mean: <1.5^2 log PFU/lung
  Virus titre in lung, Median: <1.5^2 log PFU/lung
